According to patent EP2663342B1, “STABLE HYDROGEL COMPOSITIONS INCLUDING PHENYLEPHRINE” (ALLERGAN, INC., priority 2011, dated 2012):

Legend:
Type in all cases: physicochemical
[1] = Extrusion force of HA-based gel at 3 years equivalent at room temperature
Procedure: (§1) The hydrogel properties, aspect (i.e., color/clarity/homogeneity), and extrusion force were analyzed after autoclaving and at 3 years equivalent at room temperature.

[2] = Extrusion force of HA-based gel after autoclaving; details: ΔF vs HA gel without the added ingredients
Source text: Stability of a hydrogel composition disclosed herein can be determined by subjecting a hydrogel composition to a heat treatment, such as, e.g., steam sterilization at normal pressure or under pressure (e.g., autoclaving). […] Substantial stability of a hydrogel composition disclosed herein can be evaluated 1) by determining the change in the extrusion force (ΔF) of a hydrogel composition disclosed herein after sterilization, where the change in extrusion force less 2N is indicative of a substantially stable hydrogel composition as measured by (the extrusion force of a hydrogel composition with the specified additives) minus (the extrusion force of the a hydrogel composition without the added additives); and/or 2) by determining the change in rheological properties of a hydrogel composition disclosed herein after sterilization, where the change in tan δ 1 Hz of less than 0.1 is indicative of a substantially stable hydrogel composition as measured by (tan δ 1 Hz of gel formulation with additives) minus (tan δ 1 Hz of gel formulation without additives). As such, a substantially stable hydrogel composition disclosed herein retains one or more of the following characteristics after sterilization: homogeneousness, extrusion force, cohesiveness, hyaluronan concentration, agent(s) concentration, osmolarity, pH, or other rheological characteristics desired by the hydrogel before the heat treatment.
as §1

[3] = Aspect (color/clarity/homogeneity) of HA-based gel after autoclaving; details: for Aspect: after autoclaving and at 3 years equivalent at room temperature
Procedure: The active ingredient was incorporated into a HA-based gel matrix and autoclaved by steam sterilization at a temperature between about 130 °C to about 135 °C for between about one minute and about 10 minutes. The hydrogel properties, aspect (i.e., color/clarity/homogeneity), and extrusion force were analyzed after autoclaving and at 3 years equivalent at room temperature. All formulations were clear, homogenous, uncolored, and had acceptable extrusion force properties after autoclaving and at the 3-year equivalent mark (Table 3).
Ascorbic acid, at a concentration of 1% (w/w) was, incorporated in a HA-based gel matrix, and the pH of the gel adjusted to about 7 and then autoclaved by steam sterilization at a temperature between about 130 °C to about 135 °C for between about one minute and about 10 minutes.

[4] = as above
[5] = Oxidation testing: degradation by free radicals (H2O2) on a rheometer; details: gel with AA2G and lidocaine versus gel with lidocaine
Source text: The effect of ascorbic acid 2-glucoside (AA2G™) on HA-based gel matrix oxidative degradation was studied. Oxidation testing was used as it allows testing of the resistance of a HA-based gel matrix to free radicals. Degradation by free radicals was simulated on a rheometer (Haake Rheostress 600) by addition of 1/7 ratio of H2O2 30% on the surface of a spread gel measured with a controlled stress rheometer according to the following method: frequency of 1 Hz with 0.8% controlled strain, during 3600 s at 35 °C. The time value is taken at 5 Pa/s.

[6] = ingredient at 0.3 % in HA-based gel matrix
[7] = ingredient at 0.5 % in HA-based gel matrix
[8] = ingredient at 1 % in HA-based gel matrix

For `NC(=O)NC1NC(=O)NC1=O` (stereo not drawn) [Allantoin], the “Extrusion force (N) 3 years ∼ room T °C” value [1, 6] was “PASSED (the change of extrusion force (ΔF) was less than two Newtons (< 2 N))”, the “Extrusion force (N) 3 years ∼ room T °C” value [1, 7] was “PASSED (the change of extrusion force (ΔF) was less than two Newtons (< 2 N))” and the “Extrusion force (N) after autoclaving” value [2, 6] was “PASSED (the change of extrusion force (ΔF) was less than two Newtons (< 2 N))”. The “Extrusion force (N) after autoclaving” value [2, 7] was “PASSED (the change of extrusion force (ΔF) was less than two Newtons (< 2 N))”.

In the case of `Cc1cc(=O)n(-c2ccccc2)n1C` [Antipyrin, reference compound], the “Extrusion force (N) 3 years ∼ room T °C” value [1, 7] is reported as “PASSED (the change of extrusion force (ΔF) was less than two Newtons (< 2 N))”, the “Extrusion force (N) 3 years ∼ room T °C” value [1, 8] is reported as “PASSED (the change of extrusion force (ΔF) was less than two Newtons (< 2 N))” and the Aspect [3, 7] is reported as “Clear Homogeneous Uncolored”. For the same compound, the Aspect [3, 8] was “Clear Homogeneous Uncolored”, the “Extrusion force (N) after autoclaving” value [2, 7] was “PASSED (the change of extrusion force (ΔF) was less than two Newtons (< 2 N))” and the “Extrusion force (N) after autoclaving” value [2, 8] was “PASSED (the change of extrusion force (ΔF) was less than two Newtons (< 2 N))”.

In the case of `O=C1O[C@H]([C@@H](O)CO)C(O)=C1O[C@H]1O[C@H](CO)[C@@H](O)[C@H](O)[C@H]1O` [Ascorbic acid 2-Glucoside], the “aspect of gel after autoclaving” value ([4]; 0.6% (w/w), 1% (w/w), or 2% (w/w) AA2G in HA-based gel matrix, pH about 7, same before autoclaving) is reported as “clear and uncolored” and the “protected against oxidative degradation by a factor” value [5] is reported as 3.

For `O=C1O[C@H]([C@@H](O)CO)C(O)=C1O` [Ascorbic acid, (5R)-[(1S)-1,2-dihydroxyethyl]-3,4-dihydroxyfuran-2(5H)-one], the “aspect of gel after autoclaving” value ([3]; 1% (w/w) in HA-based gel matrix, pH about 7, clear and uncolored before autoclaving) was “clear but yellowed”.

With `Nc1ccn([C@@H]2O[C@H](CO)[C@@H](O)[C@H]2O)c(=O)n1` [Cytidine] the “Extrusion force (N) 3 years ∼ room T °C” value [1, 7] was “PASSED (the change of extrusion force (ΔF) was less than two Newtons (< 2 N))”, the “Extrusion force (N) 3 years ∼ room T °C” value [1, 8] was “PASSED (the change of extrusion force (ΔF) was less than two Newtons (< 2 N))” and the “Extrusion force (N) after autoclaving” value [2, 7] was “PASSED (the change of extrusion force (ΔF) was less than two Newtons (< 2 N))”. The “Extrusion force (N) after autoclaving” value [2, 8] was “PASSED (the change of extrusion force (ΔF) was less than two Newtons (< 2 N))”.

With `CC(C)(CO)[C@@H](O)C(=O)NCCCO` [Dexpanthenol] the “aspect of gel after autoclaving” value ([4]; 1% (w/w) in HA-based gel matrix comprising 0.3% (w/w) lidocaine, same before autoclaving) was “clear and uncolored”.

With `CNC[C@H](O)c1ccc(O)c(O)c1` [Epinephrine bitartrate] the “aspect of gel after autoclaving” value ([4]; 10 ppm in HA-based gel matrix comprising 0.3% (w/w) lidocaine, clear and uncolored before autoclaving) was “clear but colored”, the “aspect of gel after autoclaving” value ([4]; 10 ppm in HA-based gel matrix, same before autoclaving) was “clear and uncolored” and the “aspect of gel after autoclaving” value ([4]; 20 ppm in HA-based gel matrix comprising 0.3% (w/w) lidocaine and 4.5% (w/w) mannitol, clear and uncolored before autoclaving) was “slightly colored”.

In the case of `CNC[C@H](O)c1ccc(O)c(O)c1` [Epinephrine, (R)-4-(1-hydroxy-2-(methylamino)ethyl)benzene-1,2-diol], the “aspect of gel after autoclaving” value ([4]; 10 ppm in HA-based gel matrix with 0.9% (w/w) mannitol) is reported as “slightly colored” and the “aspect of gel after autoclaving” value ([4]; 10 ppm in HA-based gel matrix with 4.5% (w/w) mannitol, same before autoclaving) is reported as “clear and uncolored”.

For `CC12CCC(CC1)C(C)(C)O2` [Eucalyptol], the “Extrusion force (N) 3 years ∼ room T °C” value [1, 7] was “PASSED (the change of extrusion force (ΔF) was less than two Newtons (< 2 N))” and the “Extrusion force (N) after autoclaving” value [2, 7] was “PASSED (the change of extrusion force (ΔF) was less than two Newtons (< 2 N))”.

In the case of `OCC(O)CO` [Glycerin], the “Extrusion force (N) 3 years ∼ room T °C” value [1, 7] is reported as “PASSED (the change of extrusion force (ΔF) was less than two Newtons (< 2 N))” and the “Extrusion force (N) after autoclaving” value [2, 7] is reported as “PASSED (the change of extrusion force (ΔF) was less than two Newtons (< 2 N))”.

With `O=C1O[C@H]([C@@H](O)CO)C([O-])=C1OP(=O)([O-])[O-].O=C1O[C@H]([C@@H](O)CO)C([O-])=C1OP(=O)([O-])[O-].[Mg+2].[Mg+2].[Mg+2]` [Magnesium Ascorbyl Phosphate] the “aspect of gel after autoclaving” value ([4]; 0.6% (w/w), 1% (w/w) or 2% (w/w) MAP in HA-based gel matrix, pH about 7, same before autoclaving) was “clear and uncolored”.

For `c1ccc2c(CC3=NCCN3)cccc2c1` [Naphazoline, 2-(1-naphthylmethyl)-2-imidazoline], the “aspect of gel after autoclaving” value ([4]; 100 ppm naphazoline in HA-based gel matrix comprising 0.3% (w/w) lidocaine, same before autoclaving) was “clear and uncolored”.

For `CNC[C@H](O)c1cccc(O)c1` [Phenylephrine, (R)-3-[-1-hydroxy-2-(methylamino)ethyl]phenol], the “aspect of gels after autoclaving” value ([4]; 100 ppm or 400ppm phenylephrine in HA-based gel matrixes comprising 0.3% (w/w) lidocaine, same before autoclaving) was “clear and uncolored”.

For `O=C1O[C@H]([C@@H](O)CO)C([O-])=C1OP(=O)([O-])[O-].[Na+].[Na+].[Na+]` [Sodium Ascorbyl Phosphate], the “aspect of gel after autoclaving” value ([4]; 0.6% (w/w), 1% (w/w), or 2% (w/w) SAP in HA-based gel matrix, pH about 7, same before autoclaving) was “clear and uncolored”.

For `Cc1c(C)c2c(c(C)c1OP(=O)([O-])[O-])CCC(C)(CCCC(C)CCCC(C)CCCC(C)C)O2.[Na+].[Na+]` (stereo not drawn) [Sodium Tocopheryl Phosphate], the “aspect of gel after autoclaving” value ([4]; 0.4% (w/w) or 1.2% (w/w) in HA-based gel matrix) was “unclear and white”.

In the case of `CNCC(O)c1ccc(O)cc1` (stereo not drawn) [Synephrine, 4-[1-hydroxy-2-(methylamino)ethyl]phenol], the “aspect of gel after autoclaving” value ([4]; 100 ppm synephrine in HA-based gel matrix comprising 0.3% (w/w) lidocaine, same before autoclaving) is reported as “clear and uncolored”.

In the case of `Cc1cn([C@H]2C[C@H](O)[C@@H](CO)O2)c(=O)[nH]c1=O` [Thymidine], the “Extrusion force (N) 3 years ∼ room T °C” value [1, 7] is reported as “PASSED (the change of extrusion force (ΔF) was less than two Newtons (< 2 N))”, the “Extrusion force (N) 3 years ∼ room T °C” value [1, 8] is reported as “PASSED (the change of extrusion force (ΔF) was less than two Newtons (< 2 N))” and the “Extrusion force (N) after autoclaving” value [2, 7] is reported as “PASSED (the change of extrusion force (ΔF) was less than two Newtons (< 2 N))”. The “Extrusion force (N) after autoclaving” value [2, 8] was “PASSED (the change of extrusion force (ΔF) was less than two Newtons (< 2 N))”.

In the case of `CC(=O)Oc1c(C)c(C)c2c(c1C)CCC(C)(CCC[C@H](C)CCC[C@H](C)CCCC(C)C)O2` (stereo partly drawn) [Tocopheryl Acetate], the “aspect of gel after autoclaving” value ([4]; 0.5% (w/w) or 1.2% (w/w) in HA-based gel matrix) is reported as “unclear and white”.

In the case of `NC[C@H]1CC[C@H](C(=O)O)CC1` [Tranexamic acid, reference compound], the “Extrusion force (N) 3 years ∼ room T °C” value [1, 7] is reported as “PASSED (the change of extrusion force (ΔF) was less than two Newtons (< 2 N))”, the “aspect of gel after autoclaving” value ([4]; 0.4% (w/w) tranexamic acid in HA-based gel matrix comprising 0.3% (w/w) lidocaine, same before autoclaving) is reported as “clear and uncolored” and the “Extrusion force (N) after autoclaving” value [2, 7] is reported as “PASSED (the change of extrusion force (ΔF) was less than two Newtons (< 2 N))”.

With `O=c1ccn([C@@H]2O[C@H](CO)[C@@H](O)[C@H]2O)c(=O)[nH]1` [Uridine] the “Extrusion force (N) 3 years ∼ room T °C” value [1, 7] was “PASSED (the change of extrusion force (ΔF) was less than two Newtons (< 2 N))”, the “Extrusion force (N) 3 years ∼ room T °C” value [1, 8] was “PASSED (the change of extrusion force (ΔF) was less than two Newtons (< 2 N))” and the Aspect [3, 7] was “Clear Homogeneous Uncolored”. For the same compound, the Aspect [3, 8] was “Clear Homogeneous Uncolored”, the “Extrusion force (N) after autoclaving” value [2, 7] was “PASSED (the change of extrusion force (ΔF) was less than two Newtons (< 2 N))” and the “Extrusion force (N) after autoclaving” value [2, 8] was “PASSED (the change of extrusion force (ΔF) was less than two Newtons (< 2 N))”.

With Polyoxyethanyl-α-tocopheryl sebacate the “aspect of gel after autoclaving” value ([4]; 0.7% (w/w) in HA-based gel matrix) was “clear, but heterogeneous”.
